Results on 1 compound are retold here after PMC4478171, “Synthesis, characterization, and preclinical validation of a PET radiopharmaceutical for interrogating Aβ (β-amyloid) plaques in Alzheimer’s disease” (EJNMMI Research, 2015).

Data set [1] has as its target AD homogenates (Homo sapiens, UniProt P05067). The data set can be described thus: Saturation radioligand binding to AD brain homogenates (insoluble fraction). As to the method: Well-established literature procedures were used for preparation of AD homogenates. Grey matter was isolated from frozen postmortem frontal cortex tissue by dissection with a scalpel. To prepare insoluble fractions, dissected tissue was sequentially homogenized in four buffers (3 mL/g wet weight of tissue) with glass dounce tissue grinders (Kimble, Vineland, NJ, USA): 1) high salt (HS) buffer: 50 mM Tris-HCl pH 7.5, 750 mM NaCl, 5 mM EDTA; 2) HSbuffer with 1%Triton X-100; 3) HSbuffer with 1%Triton X-100 and 1 M sucrose; and 4) phosphate-buffered saline (PBS). Homogenates were centrifuged at 100,000×g; after each homogenization step, the pellet was resuspended, and homogenized in the next buffer in the sequence. For comparison in initial binding studies, unfractionated tissue homogenates were also prepared by homogenization of tissue in only PBS. Binding assays were performed using previously described methods. Briefly, a fixed concentration (1 μM/well) of Aβ1-42 fibrils was incubated for 1 h at 37°C with increasing concentrations of ^18F-7B (1.5 to 100 nM) in 30 mM Tris-HCl pH 7.4, 0.1% BSA in a reaction volume of 150 μL. A fixed ratio of hot:cold (^18F-7B and 7A) was used for all radioligand concentrations. The exact hot:cold (^18F-7B:7A) ratio was measured in each experiment by counting an aliquot of a sample (2 μL) of the radioligand preparation in a scintillation counter. Binding of ^18F-7B to human brain homogenates was assessed by incubating samples of insoluble fraction (5-μg insoluble protein/well) from AD subjects, with increasing concentrations of ^18F-7B (1.5 to 100 nM). Nonspecific binding was determined in parallel experiments utilizing 7A (2.5 μM) for Aβ1-42 fibrils and 7A (5 μM) for AD tissue as a competitor. Bound and free radioligand were separated by vacuum filtration through glass fiber 96-well filter plates (Millipore Multiscreen FB filter plate), followed by washes using ice-cold assay buffer (3 × 150 μL). Glass fiber filters containing the bound ligand were mixed with Optiphase Supermix scintillation cocktail (150 μL; PerkinElmer, Waltham, MA, USA) and counted immediately. All data were obtained in triplicate and analyzed by curve fitting to a one-site binding model using nonlinear regression employing Graphpad Prism software (version 4.0) to determine Kd and Bmax values. Bmax values were calculated in pmol/gram wet weight of brain tissue.

Data set [2] deals with Aβ plaques (Homo sapiens, UniProt P05067). The data set can be described thus: MicroPET/CT imaging in APP/PS1 versus WT mice. The class given is in vivo. The method, then: Following anesthesia, the mice were secured with their heads in the center of the field of view, fixed in the scanner in a prone head-first position (HFP), and placed in an acrylic-imaging tray. MicroPET imaging was performed using Inveon PET/CT scanner (Siemens Medical Solutions, Malvern, PA, USA) following intravenous tail-vein injection of HPLC-purified [^18F]7B (12.95 MBq; 28 μL; 35% ethanol in saline) employing the catheter system in a slow bolus, followed by flushing with isotonic saline solution. PET dynamic data acquisition was performed over 75 min starting immediately following injection of the tracer. The emission data were normalized and corrected for attenuation, scatter, and decay. Attenuation correction was obtained using the co-registered CT data. The image volume consisted of 256 × 256 × 159 voxels, with a size of 0.39 × 0.39 × 0.8 mm^3 per voxel for the Inveon scanner. For anatomical visualization, PET images were co-registered with CT images from an Inveon PET/CT scanner. For analysis, brain uptake (Bq/L) was normalized to injected dose and weight of animals. […] Additionally, SUV values in time-activity curves were normalized to the average activity measured in those regions between 1 to 2 min post-injection. All image data were processed and analyzed using Inveon Research Workspace 4.1 software (Siemens, Malvern, PA, USA). […]
Aβ plaques, sequence (P05067 672-711 limits assumed): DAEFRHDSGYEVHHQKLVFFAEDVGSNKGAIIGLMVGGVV

AD homogenates, sequence (P05067 672-711 limits assumed): as above

`CN(C)c1ccc(/C=C/c2nc3ccc(OCC[18F])cc3s2)cn1` [^18F-7B, (E)-5-(2-(6-(2-[^18F]-fluoroethoxy)-benzo[d]thiazol-2-yl)vinyl)-N,N-dimethylpyridin-2-amine]: the “fold higher affinity for AD homogenates compared with fibrils” value in data set [1] (AD homogenates vs Aβ1-42 fibrils) is 3.4 fold. In addition, the Bmax in data set [1] (AD homogenates, one-site model) is listed as 1,432 pmol/g wet weight. In data set [1] (comparator value from ref 11), the “fold lower binding affinity to AD homogenates than Florbetapir” value is 5 fold. In addition, the “fold lower binding affinity to AD homogenates than Flutemetamol” value in data set [1] (comparator value from ref 16) is on record as 2.6 fold. The “fold lower BP than 11C-PIB” value in data set [1] (homogenates, comparator from ref 28) turned out to be 6 fold. Further, the “fold lower BP than 18F-Florbetaben” value in data set [1] (homogenates, comparator from ref 36) was found to be 2 fold. The Kd in data set [1] (saturable specific binding, one-site model, nonspecific binding with 7A (5 μM)) turned out to be 17.7 nM. The “retention in brain/frontal cortex of transgenic mice compared with WT” value in data set [2] (APP/PS1 vs age-matched WT mice, 22.6 months, dynamic PET 1 to 75 min, i.v.) is “significantly higher retention”. Further, in data set [2] (nasal and eye cavities, microPET/CT), the “retention in extracerebral regions” value is “considerable retention in extracerebral regions”.

By Kd is commonly meant a measure of binding affinity in units of concentration.
